Test results as given in patent US8093273B2, “Flavanoids and isoflavanoids for the prevention and treatment of cardiovascular diseases” (Resverlogix Corp., priority 2004, dated 2012).
In brackets after ≈: the same amount, converted by molar mass. Read-outs that look alike come from different tables or passages of the source.

Experiments:
Caco-2 permeability = assay type: in vitro ADME, human; details: human, Caco-2
Excerpt: The Caco-2 cell drug transport model is widely used for screening compounds in drug discovery to assess intestinal transport and predict absorption rates.

human ApoA-I promoter [1] = experiment: ApoA-I promoter induction in HepG2 liver cells (pAI.474-Luc luciferase reporter); assay type: cell-based; details: average values at 15 μM, 48 hours incubation
Experimental: This study determined whether compounds of the invention have an effect on ApoA-I promoter activity expression in HepG2 cells, a liver cell line. Cells were grown under conditions recommended by the ATCC and summarized by Wong.
The promoter region of the gene encoding human ApoA-I was isolated and ligated upstream the structure gene of firefly luciferase to construct a reporter plasmid (pAI.474-Luc). The reporter plasmid, along with pRSV-β-galactosidase (as a control for transfection efficiency), were co-transfected into HepG2 cells. The cells were then incubated in an MEM selection media containing 20% fetal calf serum supplemented with G418 (final concentration: 0.5 mg/mL, Gibco) to give established strains that stably express from the reporter gene. The strains were seeded to a 6-well culture plates and incubated for 48 hours at 37° C. under 5% carbon dioxide. Cells were starved for 24 hrs in MEM selection media containing 0.5% FBS. Then, a solution of the compounds of the invention in DMSO (or other appropriate solvent) was added to the wells at a final concentration of 0 to 100 μM in MEM selection media containing 0.5% FBS.
After further incubation for 48 hours, the cells were harvested and lysed using Reporter Lysis Buffer (PROMEGA E3971), and 50 μL of luciferase assay reagent (PROMEGA E4550 Luciferase Reporter 1000 assay system) were added to measure luciferase activity with a luminometer (Fluoroskan Ascent FL from Thermo electron Corporation). Luciferase activity was normalized to lysate protein concentrations, measured using Bradford Reagent (Biorad Protein Assay reagent Cat #500-0006).

[2] = Solubility analysis in PBS (HPLC-UV); assay type: physicochemical; details: aqueous buffer, thermodynamic from solid; 1 mg in 1 mL PBS, sonicated 1 hour, 25° C. for 3 hrs
Experimental: Samples were then centrifuged at 14,000 rpm for 6 minutes at room temperature. The supernatant was diluted with acetonitrile and was removed for analysis. Analysis was performed using HPLC-UV with 7-point standard curve to determine the concentration. The average concentration calculated is regarded as the solubility (μM).

human ApoA-I promoter [3] = experiment: ApoA-I promoter induction in Caco-2 intestinal cells (pAI.474-Luc luciferase reporter); assay type: cell-based; details: Caco-2 cells, 15 μM, 48 hours incubation, luciferase activity vs control samples
Summary of the method: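 Caco-2 cells stably carrying the human ApoA-I promoter–firefly luciferase construct (pAI.474-Luc) were starved 24 h in 0.5% FBS medium, then exposed to compound at 0 to 100 μM final for 48 h at 37° C. Luciferase activity in lysates was normalized to Bradford protein and compared with solvent-only and untreated controls.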

hApoA-I transgenic mice = experiment: hApoA-I transgenic mice, oral gavage for 14 days; assay type: in vivo; details: for change in vivo at 10 mg/kg: Mus musculus, po, 336 h, 10 mg/kg BID 14 days, relative to pretreatment, read-out: ApoA-I (% change)
Excerpt: To test whether the efficacy of compounds of the invention observed in vitro extended to an in vivo model, transgenic mice carrying multiple copies of the human ApoA-I gene (C57BI/6-tgn(apoa1)1 rub, Jackson Laboratory, Bar Harbor, Me.) were exposed to representative compounds of the invention. The exogenous human ApoA-I gene in these mice enables them to express the human ApoA-I protein under the control of this promoter.
Seven to eight week old male mice, transgenic for human ApoA-I were housed five per cage (10″×20″×8″ with aspen chip bedding) with pelleted Rodent chow [Purina 5001] and water available at all times. After an acclimation period of 1 week, animals were individually identified by numbering on tail and weighed. Mice were pre bled via the retro-orbital plexus, and 150 μl of blood was collected in 1.5 ml Eppendorf tube containing 1 μl of heparin and chilled on ice. Plasma was collected after centrifuging the whole blood at 14000 rpm [TOMY high speed micro-refrigerated centrifuge NTX-150] for 10 minutes at 4° C. and frozen at −80° C. Plasma was analyzed for: human ApoA-I by a human ApoA-I enzyme-linked Immunoassay [Direct Sandwich ELISA Calbiochem Cat#178422, Calbiochem Cat#178452, lot #B9076, Calbiochem Cat #178470 conjugated to Horse Radish Peroxidase (Cedarlane Cat#80220)]; total cholesterol [Ponte scientific reagents: # C7509-STD, #L7580-18, # C7510]; and triglyceride [Pointe Scientific Reagents: # 7532-STD, # L7580-18, #7532]. All samples were measured in triplicates and expressed as mg/dl. Mice were grouped based on the above plasma parameters and having an average body weight of 25 gm.
Two days following pre-bleed, mice were dosed by oral gavage daily for 14 days using a 20 gauge, 11/2″ curved disposable feeding needle [Popper & Sons]; when BID, mice were gavaged morning and afternoon (8 am and 5 pm); when SID mice were gavaged in morning (8 am). Compounds were prepared each day in vehicle. Test article(s), a positive control fenofibrate, and vehicle were dosed at volume of 5 mL/kg of body weight as a suspension (0.1 mL/20 g mouse). Fenofibrate was obtained commercially [SIGMA #F 6020]. Mice weights were recorded on day 1, 4, 7, 10, 12, and 15. On day 15, mice were weighed and fasted for 4 hours, sacrificed by inhalation of CO2 and blood was obtained via cardiac puncture (0.7-1.0 ml). Plasma was collected and frozen at −80° C. Samples were assayed for ApoA-I, total cholesterol, triglyceride and HDL-C by HPLC [Polaris 200 with an auto sampler Prostar 410 from Varian on a Superose 6 10/30 column from Amersham]. Samples were sent for NMR analysis [LipoScience] to identify particle size and subclass for lipoproteins. During necropsy, liver, brown fat, and the whole of small and large intestines were collected, cleaned with cold PBS and frozen at −80° C. for further analysis of compound levels. Variation between studies, in ApoA-I changes, was observed. Therefore, a relative comparison between individual(s) in the study groups was used.
4′-hydroxyflavone (10 mg/kg of body weight), 4-(4-oxo-4H-chromen-2-yl)phenyl nicotinate (Example 71) (10 mg/kg of body weight) and fenofibrate (100 mg/kg of body weight) were BID administered to hApoA-I transgenic mice daily for fourteen days by oral gavage in 0.5% Methylcellulose (w/v)/1% Tween 80 (w/v). Plasma was assayed for ApoA-I (FIG. 3A), HDL cholesterol and total cholesterol (FIG. 3B) and percent weight gain (FIG. 3C).
4′-hydroxyflavone (3 mg/kg of body weight), 4′-hydroxyflavone (10 mg/kg of body weight), 4′-hydroxyflavone (30 mg/kg of body weight), 2-(4-Hydroxy-phenyl)-pyrano[2,3-b]pyridin-4-one (10 mg/kg of body weight), and fenofibrate (100 mg/kg of body weight) were BID administered to hApoA-I transgenic mice daily for fourteen days by oral gavage in 0.5% methylcellulose (w/v)/1% Tween 80 (w/v). In this experiment plasma was assayed for ApoA-I. […]

[4] = Table 6 fourth group, Control 3 1.11

SMILES	Papp (Caco-2 permeability) [×10⁻⁶ cm/s]	solubility at 3 h [2] [µM]	melting point [°C]	ApoA-I Promoter Induction (human ApoA-I promoter [1])	ApoA-I Promoter Induction (human ApoA-I promoter [3])	change in vivo at 10 mg/kg (hApoA-I transgenic mice; Table 6 second group, Control 1 3.42) [%]	change in vivo at 10 mg/kg (hApoA-I transgenic mice; [4]) [%]	plasma ApoA-I, net % change over vehicle (hApoA-I transgenic mice; Experiment A, 10 mg/kg BID oral gavage, 14 days, 0.5% methylcellulose/1% Tween 80) [%]	liver weight gain normalized to body weight, compared to vehicle (hApoA-I transgenic mice; Experiment A, 10 mg/kg BID, day 15, male mice)
Nc1cc(O)ccc1-c1cc(=O)c2ccccc2o1 [Example 3, 2-(2-amino-4-hydroxy-phenyl)-chromen-4-one]	7.42			increased					
O=c1cc(-c2ccc(O)c(F)c2)oc2ccc(CO)cc12 [Example 33, 2-(3-fluoro-4-hydroxyphenyl)-6-(hydroxymethyl)-4H-chromen-4-one]		51.4 (≈ 14.7 µg/mL)	256 to 258		increased				
O=c1cc(-c2ccc(O)c(F)c2)oc2ncccc12 [Example 37, 2-(3-fluoro-4-hydroxyphenyl)pyrano[2,3-b]pyridine-4-one]	2.06	194 (≈ 50 µg/mL)	267 to 268		increased	14.4			
O=c1cc(-c2ccc(O)cc2)oc2ccncc12 [Example 39, 2-(4-hydroxyphenyl)-4H-pyrano[3,2-c]pyridine-4-one]	1.21	31.6 (≈ 7.56 µg/mL)	306 to 308		increased		11.2		
O=c1cc(-c2ccc(O)c(Cl)c2)oc2ncccc12 [Example 41, 2-(3-chloro-4-hydroxyphenyl)-4H-pyrano[2,3-b]pyridine-4-one]	1.76	84.4 (≈ 23.1 µg/mL)	259 to 262		increased				
O=C(Oc1ccc(-c2cc(=O)c3ccccc3o2)cc1)c1cccnc1 [Example 71, 4-(4-oxo-4H-chromen-2-yl)phenyl nicotinate]				increased	increased			12.82	minor changes

Now from value to molecule, other results behind:

Papp (Caco-2 permeability) [×10⁻⁶ cm/s]	solubility at 3 h [2] [µM]	melting point [°C]	SMILES	ApoA-I Promoter Induction (human ApoA-I promoter [1])	ApoA-I Promoter Induction (human ApoA-I promoter [3])	change in vivo at 10 mg/kg (hApoA-I transgenic mice; Table 6 second group, Control 1 3.42) [%]	change in vivo at 10 mg/kg (hApoA-I transgenic mice; [4]) [%]	plasma ApoA-I, net % change over vehicle (hApoA-I transgenic mice; Experiment A, 10 mg/kg BID oral gavage, 14 days, 0.5% methylcellulose/1% Tween 80) [%]	liver weight gain normalized to body weight, compared to vehicle (hApoA-I transgenic mice; Experiment A, 10 mg/kg BID, day 15, male mice)
0.959	52.6 (≈ 16.7 µg/mL)	267 to 272	O=c1cc(-c2ccc(O)c(Br)c2)oc2ncccc12 [Example 42, 2-(3-bromo-4-hydroxyphenyl)-4H-pyrano[2,3-b]pyridin-4-one]		increased				
	47.1 (≈ 12.7 µg/mL)	253 to 255	COc1cc(-c2cc(=O)c3cccnc3o2)ccc1O [Example 43, 2-(4-hydroxy-3-methoxyphenyl)-4H-pyrano[2,3-b]pyridine-4-one]		increased				
	334 (≈ 94.6 µg/mL)	157 to 159	O=c1cc(-c2ccc(OCCO)cc2)oc2ncccc12 [Example 45, 2-(4-(2-hydroxyethoxy)phenyl)-4H-pyrano[2,3-b]pyridine-4-one]		increased				
1.76	44.9 (≈ 10.7 µg/mL)	239 to 241	O=c1[nH]c(-c2ccc(O)cc2)cc2ccccc12 [Example 53, 3-(4-hydroxyphenyl)-2H-isoquinolin-1-one]	increased	increased		13.2		
4.11		218 to 219	Oc1ccc(-c2cc3ccccc3cn2)cc1 [Example 54, 4-isoquinolin-3-yl-phenol]	increased	increased				
	58.2 (≈ 17.3 µg/mL)	245 to 247	COc1cc(OC)c2c(=O)[nH]c(-c3ccc(O)cc3)cc2c1 [Example 60, 3-(4-Hydroxyphenyl)-6,8-dimethoxyisoquinolin-1(2H)-one]		increased				
	48.5 (≈ 13.1 µg/mL)	226 to 227	O=c1cc(-c2ccc(O)c(CO)c2)oc2ncccc12 [Example 81, 2-(4-hydroxy-3-(hydroxymethyl)phenyl)-4H-pyrano[2,3-b]pyridin-4-one]		increased				
	66.8	250 to 253	CNc1nc(-c2ccc(O)cc2)cc2cc(OC)cc(OC)c12.Cl [Example 82, 4-(6,8-dimethoxy-1-(methylamino)isoquinolin-3-yl)phenol hydrochloride]		increased				
